# From patent publication US20250255867A1 (Kadmon Corporation, LLC, priority 2022, published 2025)
# Where two headings read alike, the source gives them in different places.
# Experiments:
# Format in all cases: in vivo, human
# [1] = system: patients with cGVHD; experiment: Example 1: time to next therapy, failure-free survival, overall survival
# Experimental: Time to next therapy (TTNT). The TTNT was defined as the time (in months) from first treatment to the time of new systemic cGVHD treatment. TTNT was censored by last response assessment or long term follow up assessment, whichever was earlier. Kaplan-Meier survival method was used for the analysis. […] Analysis was performed on mITT population.
# Failure-free survival was defined as the time (in months) from first dose of study drug to either the start of another new systemic treatment for cGVHD, relapse of the underlying disease or death. If no such events happened, FFS was censored by last response assessment or long term follow up assessment, whichever was the latest and available. Kaplan-Meier survival method was used for the analysis. Analysis was performed on mITT population.
# Overall survival was defined as the time (in months) from first dose of study drug to the death due to any reason. If there was no death, OS was censored by last visit, last long term follow-up, or study cutoff date, whichever was the latest. Kaplan-Meier survival method was used for the analysis.
# [2] = Example 1: plasma pharmacokinetics (Cmax, Tmax, AUC0-6 hr) of belumosudil and metabolites; conditions: for Tmax: human, oral, read-out: Time of the Maximum Observed Plasma Concentration (Tmax), Median (Full Range); for Maximum Observed Plasma Concentration (Cmax), Geometric Mean (Geometric Coefficient of Variation) / Tmax: plasma
# Experimental: Cmax was the maximum observed plasma concentration, obtained by a non-compartmental analysis. […] Timeframe: Cycles 1 and 2: pre-dose (0 hour), 1, 2, 3, 4, 5, and 6 hours post-dose on Day 1. […] Here, ‘number analyzed’=participants with available data for each specified category.
# Tmax was defined as time to reach maximum observed plasma concentration, obtained by a non-compartmental analysis. […] Timeframe: Cycles 1 and 2: pre-dose (0 hour), 1, 2, 3, 4, 5, and 6 hours post-dose on Day 1. Analysis was performed on PK population. Here, ‘number analyzed’=participants with available data for each specified category.
# AUC0-6 hr was defined as area under the plasma concentration versus time curve from time 0 to 6 hours post-dose, obtained by a non-compartmental analysis from the concentration-time data. […] Timeframe: Cycles 1 and 2: pre-dose (0 hour), 1, 2, 3, 4, 5, and 6 hours post-dose on Day 1. Analysis was performed on PK population. Here, ‘number analyzed’=participants with available data for each specified category.
# [3] = system: subjects with cGVHD; experiment: Example 2 phase II randomized study: cGVHD response per 2014 NIH Consensus Criteria (best ORR, organ ORR, DOR, time to response); conditions: for Best ORR: mITT
# Experimental: (§1) All responses were assessed by the study site investigators.
# [4] = system: subjects with cGVHD; experiment: Example 2: corticosteroid and other immunosuppressant reduction/discontinuation
# Experimental: as §1
# [5] = Cohort 1: Belumosudil 200 mg QD, Cycle 1 Day 1
# [6] = Cohort 1: Belumosudil 200 mg QD, Cycle 2 Day 1
# [7] = Cohort 2: Belumosudil 200 mg BID, Cycle 1 Day 1
# [8] = Cohort 2: Belumosudil 200 mg BID, Cycle 2 Day 1
# [9] = Cohort 3: Belumosudil 400 mg QD, Cycle 1 Day 1
# [10] = Cohort 3: Belumosudil 400 mg QD, Cycle 2 Day 1
# [11] = 200 mg BID (n = 66), 42 with organ involved
# [12] = 200 mg BID (n = 66), 49 with organ involved
# [13] = 200 mg QD (n = 66), 19 with organ involved
# [14] = 200 mg daily (n = 66), mITT population
# [15] = 200 mg twice daily (n = 66), mITT population
# [16] = Total (N = 132), 100 with organ involved
# [17] = Total (N = 132), mITT population
smiles,measurement,setting,value
"CC(C)NC(=O)COc1cccc(-c2nc(Nc3ccc4[nH]ncc4c3)c3ccccc3n2)c1 [Belumosudil, 2-{3-[4-(1H-indazol-5-ylamino)-2-quinazolinyl]phenoxy}-N-(propan-2-yl) acetamide]",FFS rate at 6 months,[1],76%
same,FFS rate at 12 months,[1],47%
same,"Area Under the Plasma Concentration Versus Time Curve From Time 0 to 6 Hours Post-dose (AUC0-6 hr), Geometric Mean (Geometric Coefficient of Variation)",[2]; [5],8350 hours*nanograms per milliliter
same,"Maximum Observed Plasma Concentration (Cmax), Geometric Mean (Geometric Coefficient of Variation)",[2]; [5],2500 (60.1%) nanograms per milliliter
same,"Area Under the Plasma Concentration Versus Time Curve From Time 0 to 6 Hours Post-dose (AUC0-6 hr), Geometric Mean (Geometric Coefficient of Variation)",[2]; [6],7090 (95.9%) hours*nanograms per milliliter
same,"Maximum Observed Plasma Concentration (Cmax), Geometric Mean (Geometric Coefficient of Variation)",[2]; [6],2020 (101%) nanograms per milliliter
same,"Area Under the Plasma Concentration Versus Time Curve From Time 0 to 6 Hours Post-dose (AUC0-6 hr), Geometric Mean (Geometric Coefficient of Variation)",[2]; [7],4960 hours*nanograms per milliliter
same,"Maximum Observed Plasma Concentration (Cmax), Geometric Mean (Geometric Coefficient of Variation)",[2]; [7],1400 (98.5%) nanograms per milliliter
same,"Area Under the Plasma Concentration Versus Time Curve From Time 0 to 6 Hours Post-dose (AUC0-6 hr), Geometric Mean (Geometric Coefficient of Variation)",[2]; [8],7190 (115%) hours*nanograms per milliliter
same,"Maximum Observed Plasma Concentration (Cmax), Geometric Mean (Geometric Coefficient of Variation)",[2]; [8],1890 (120%) nanograms per milliliter
same,"Area Under the Plasma Concentration Versus Time Curve From Time 0 to 6 Hours Post-dose (AUC0-6 hr), Geometric Mean (Geometric Coefficient of Variation)",[2]; [9],11500 hours*nanograms per milliliter
same,"Maximum Observed Plasma Concentration (Cmax), Geometric Mean (Geometric Coefficient of Variation)",[2]; [9],2960 (69.7%) nanograms per milliliter
same,"Area Under the Plasma Concentration Versus Time Curve From Time 0 to 6 Hours Post-dose (AUC0-6 hr), Geometric Mean (Geometric Coefficient of Variation)",[2]; [10],12000 hours*nanograms per milliliter
same,"Maximum Observed Plasma Concentration (Cmax), Geometric Mean (Geometric Coefficient of Variation)",[2]; [10],3270 (63.0%) nanograms per milliliter
same,Tmax,"[2]; 200 mg, Cohort 1: Belumosudil 200 mg QD, Cycle 1 Day 1",2.12 h
same,Tmax,"[2]; 200 mg, Cohort 1: Belumosudil 200 mg QD, Cycle 2 Day 1",2.53 h
same,Tmax,"[2]; 200 mg, Cohort 2: Belumosudil 200 mg BID, Cycle 1 Day 1",3.43 h
same,Tmax,"[2]; 200 mg, Cohort 2: Belumosudil 200 mg BID, Cycle 2 Day 1",2.47 h
same,Tmax,"[2]; 400 mg, Cohort 3: Belumosudil 400 mg QD, Cycle 1 Day 1",3.03 h
same,Tmax,"[2]; 400 mg, Cohort 3: Belumosudil 400 mg QD, Cycle 2 Day 1",2.66 h
same,"PR, Liver","[3]; 200 mg BID (n = 66), 4 with organ involved",0 n (%)
same,"PR, Upper GI","[3]; 200 mg BID (n = 66), 10 with organ involved",0 n (%)
same,"PR, Esophagus","[3]; 200 mg BID (n = 66), 12 with organ involved",0 n (%)
same,"CR, Mouth",[3]; [11],17 (41) n (%)
same,"ORR, Mouth",[3]; [11],24 (57) n (%)
same,"CR, Eyes",[3]; [12],6 (12) n (%)
same,"ORR, Joints and fascia",[3]; [12],33 (67) n (%)
same,"PR, Skin","[3]; 200 mg BID (n = 66), 55 with organ involved",13 (24) n (%)
same,"PR, Lower GI","[3]; 200 mg QD (n = 66), 6 with organ involved",0 n (%)
same,"ORR, Upper GI","[3]; 200 mg QD (n = 66), 13 with organ involved",8 (62) n (%)
same,"CR, Esophagus",[3]; [13],9 (47) n (%)
same,"PR, Esophagus",[3]; [13],0 n (%)
same,"CR, responses occurring within 6 mo of treatment",[3]; [14],2 (3) n (%)
same,"CR, responses occurring within 12 mo of treatment",[3]; [14],4 (6) n (%)
same,ORR for responses occurring within 6 mo of treatment,[3]; [14],47 (71) n (%)
same,Best ORR,[3]; 200 mg daily,74%
same,"CR, responses occurring within 6 mo of treatment",[3]; [15],1 (2) n (%)
same,"CR, responses occurring within 12 mo of treatment",[3]; [15],2 (3) n (%)
same,ORR,[3]; [15],51 (77) n (%)
same,ORR for responses occurring within 12 mo of treatment,[3]; [15],50 (76) n (%)
same,"PR, responses occurring within 6 mo of treatment",[3]; [15],47 (71) n (%)
same,"PR, responses occurring within 12 mo of treatment",[3]; [15],48 (73) n (%)
same,Best ORR,[3]; 200 mg twice daily,77%
same,"Median increase in FEV1, lung CR based on normalization of FEV1","[3]; 3 subjects, range, 18-25",23%
same,"PR, Esophagus","[3]; Total (N = 132), 31 with organ involved",0 n (%)
same,"CR, Eyes","[3]; Total (N = 132), 97 with organ involved",14 (14) n (%)
same,"CR, Joints and fascia",[3]; [16],20 (20) n (%)
same,"ORR, Joints and fascia",[3]; [16],71 (71) n (%)
same,"PR, Joints and fascia",[3]; [16],51 (51) n (%)
same,"CR, Skin","[3]; Total (N = 132), 110 with organ involved",18 (16) n (%)
same,"CR, responses occurring within 6 mo of treatment",[3]; [17],3 (2) n (%)
same,"CR, responses occurring within 12 mo of treatment",[3]; [17],6 (5) n (%)
same,"PR, responses occurring within 6 mo of treatment",[3]; [17],92 (70) n (%)
same,"PR, responses occurring within 12 mo of treatment",[3]; [17],93 (71) n (%)
same,Best ORR in subjects refractory to their last lines of therapy,[3]; in vivo,75%
same,"ORR, prior ruxolitinib therapy subgroup","[3]; pooled arms, n=38",68%
same,"ORR, prior ibrutinib therapy subgroup","[3]; pooled arms, n=46",74%
same,"Median increase in FEV1, all subjects achieving lung PR","[3]; range, 0-15",10%
same,Overall median time to response,"[3]; range, 4-66",5 weeks
same,Median DOR,[3]; responder population,54 weeks
same,"Mean change in CS dose from baseline, Nonresponder",[4]; 200 mg daily,−22%
same,"Mean change in CS dose from baseline, Responder",[4]; 200 mg daily,−49%
same,CS discontinuation,[4]; [14],13 (20) n (%)
same,"Mean change in CS dose from baseline, Overall",[4]; [14],−43%
same,Median CS reduction from baseline to greatest reduction,[4]; [14],38%
same,Proportion with CS reduction,[4]; [14],42 (64) n (%)
same,"Mean change in CS dose from baseline, Nonresponder",[4]; 200 mg twice daily,−10%
same,"Mean change in CS dose from baseline, Responder",[4]; 200 mg twice daily,−58%
same,"Mean change in CS dose from baseline, Overall",[4]; [15],−48%
same,Median CS reduction from baseline to greatest reduction,[4]; [15],50%
same,"Mean change in CS dose from baseline, Nonresponder",[4]; Total,−16%
same,"Mean change in CS dose from baseline, Responder",[4]; Total,−54%
same,"Mean change in CS dose from baseline, Overall",[4]; [17],−45%
same,Median CS reduction from baseline to greatest reduction,[4]; [17],50%
same,Subjects who discontinued CNI therapy,[4]; in vivo,22%
same,Subjects who discontinued mycophenolate mofetil,[4]; in vivo,21%
same,Subjects who discontinued sirolimus,[4]; in vivo,20%
same,Mean corticosteroid dose reduction,[4]; mITT,45%
same,Mean corticosteroid dose reduction,[4]; responders,54%
